Assay results taken from publication PMC8509669 (2021).

Experiments:
Test in all cases: ThT fluorescence light-up
[1] = test system: FenA1-ThT (DNA, aptamer) ACGACCACAGGGAGTAAGAGGCCGCCAGATTGTAAGTCGT; settings: 10 mM NaCl; 10 mM Tris-HCl pH 7.0, 30 °C; 1 µM aptamer
[2] = test system: FenA3-ThT (DNA, aptamer) CCGCAGGTCAGGTTGAGAGGATCCCGATTGCGG; settings: 10 mM NaCl; 10 mM Tris-HCl pH 7.0, 30 °C; 1 µM aptamer
[3] = test system: FenA2-ThT (DNA, aptamer) ACGACGGGCCGAGTAGTCTCCACGATTGATCGGAAGTCGT; settings: 10 mM NaCl; 10 mM Tris-HCl pH 7.0, 30 °C; 1 µM aptamer; peak signal at 1:8 sensor:ThT
[4] = test system: FenA5-ThT (DNA, aptamer) ACGACCGCAGGGCGTGAGAGCCGGAACGGTGCATCGTCGT; settings: 10 mM NaCl; 10 mM Tris-HCl pH 7.0, 30 °C; 1 µM aptamer
[5] = test system: FenA4-ThT (DNA, aptamer) ACGACCGCAGGTTGTCTGAGCCGACAGGTTGCATGTCGT; settings: 10 mM NaCl; 10 mM Tris-HCl pH 7.0, 30 °C; 1 µM aptamer

- binding [1]: weak
- binding [2]: weak
- binding [3]: yes
- binding [4]: weak
- binding [5]: weak
Compound: Cc1ccc2c(c1)sc(-c1ccc(N(C)C)cc1)[n+]2C
